Data set [1] is described as follows: Log P by HPLC retention on C18 column. The source says:
The method for the generation of Log P values by high performance liquid chromatography (HPLC) was adapted from that described by Zhao et al. 22. Briefly, Log P correlates with the retention time of a compound by a solid phase C18 column. […] By using compounds with known Log P values, a standard curve can be determined and the Log P of a compound of interest obtained by interpolation. A Waters HPLC system, linked to an Agilent fluorescence detector, was used along with a Luna 5 μ C18 50 × 2.0 mm HPLC column preceded by a guard column (Phenomenex, Macclesfield, UK). […] The sample holder for the HPLC was set at 25 °C in order to prevent freezing of the DMSO during the run. The mobile phase consisted of deionized water and acetonitrile with a constant gradient of 40–60%, respectively.
Prior to each run the column was equilibrated to the running conditions for 10 minutes, with the flow rate set to 0.5 ml min^−1. A 20‐μl aliquot of each sample was injected into the column and its retention time measured relative to that of the sodium nitrate peak. Peaks were analysed using Empower software (Waters, Wilmslow, UK).

The target of data set [2] is ABCB1 (MDR1) (Homo sapiens, UniProt P08183). Conditions: basal to apical, 0.1-100 μM Act D, 1 h, MDCKII-MDR1 minus MDCKII-WT.
Sequence of ABCB1 (MDR1) (P08183 whole entry): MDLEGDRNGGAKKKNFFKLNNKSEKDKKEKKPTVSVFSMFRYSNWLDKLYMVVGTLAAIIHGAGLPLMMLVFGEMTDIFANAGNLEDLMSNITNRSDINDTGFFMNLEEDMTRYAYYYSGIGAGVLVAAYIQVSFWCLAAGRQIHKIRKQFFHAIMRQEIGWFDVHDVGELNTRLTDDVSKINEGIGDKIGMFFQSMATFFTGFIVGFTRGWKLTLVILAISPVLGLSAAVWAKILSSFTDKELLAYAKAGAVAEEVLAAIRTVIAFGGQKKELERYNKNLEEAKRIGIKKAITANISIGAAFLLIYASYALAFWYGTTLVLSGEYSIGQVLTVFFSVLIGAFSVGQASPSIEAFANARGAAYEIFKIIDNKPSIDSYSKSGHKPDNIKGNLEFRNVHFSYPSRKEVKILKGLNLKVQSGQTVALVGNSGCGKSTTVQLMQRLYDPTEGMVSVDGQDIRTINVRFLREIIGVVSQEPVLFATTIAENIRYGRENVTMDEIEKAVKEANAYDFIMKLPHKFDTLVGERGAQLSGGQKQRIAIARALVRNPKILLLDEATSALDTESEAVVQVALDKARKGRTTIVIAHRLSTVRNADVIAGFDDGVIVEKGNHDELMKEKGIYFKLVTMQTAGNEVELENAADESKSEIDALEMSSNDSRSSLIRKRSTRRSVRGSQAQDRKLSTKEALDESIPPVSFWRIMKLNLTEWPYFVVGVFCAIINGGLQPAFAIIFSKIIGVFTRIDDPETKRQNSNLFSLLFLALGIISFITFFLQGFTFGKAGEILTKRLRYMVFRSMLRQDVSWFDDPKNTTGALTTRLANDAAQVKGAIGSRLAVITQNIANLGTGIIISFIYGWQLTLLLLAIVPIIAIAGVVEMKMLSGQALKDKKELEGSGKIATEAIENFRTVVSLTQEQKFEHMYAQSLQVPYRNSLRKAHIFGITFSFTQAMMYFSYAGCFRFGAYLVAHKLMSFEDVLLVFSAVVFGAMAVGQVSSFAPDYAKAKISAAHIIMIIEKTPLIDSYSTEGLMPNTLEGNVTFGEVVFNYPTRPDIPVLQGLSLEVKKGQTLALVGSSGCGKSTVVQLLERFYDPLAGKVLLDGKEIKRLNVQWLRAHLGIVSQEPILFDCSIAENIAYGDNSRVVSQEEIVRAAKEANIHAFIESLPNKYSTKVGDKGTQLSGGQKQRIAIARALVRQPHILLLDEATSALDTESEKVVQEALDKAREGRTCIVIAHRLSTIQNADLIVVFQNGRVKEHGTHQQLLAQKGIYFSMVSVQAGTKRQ
Description: Polarized Madin‐Darby canine kidney (MDCKII) cell line wild‐type and cells transfected with ABCB1 (MDR1) were obtained from Dr. A.H. Schinkel (Amsterdam, the Netherlands).
For drug transport experiments, 12‐mm Corning Transwell polycarbonate membrane cell culture inserts with 0.4‐μm pores were used (Sigma Aldrich, UK). Cells (passage 8–12) were seeded at 1.4 × 10^4 cells ml^−1 in growth medium and grown on filter for 5 days before the experiment was performed, with medium being changed every 24 hours. […] Growth medium was aspirated from both the apical and basal compartments, and the cells were washed twice with pre‐warmed phosphate‐buffered saline adjusted to pH 7.4. […] Lucifer yellow (60 μM) was added as a paracellular control to test for the formation of a fully confluent monolayer. A limit of 2% Lucifer yellow movement was set as the cutoff with the results for any wells exceeding that threshold being rejected.
The rate of efflux (μM min^−1/10^6 cells) due to MDR1 was determined by subtracting the rate of flux seen across the MDCKII‐WT cells from the flux across the MDCKII‐MDR1 cells.
Details of data set [3]: method as in PMID 15143082. Particulars: cited from earlier work.
Data set [4] in a line: PBPK modelling and simulation (Simcyp version 14 release 1). Details: species or system human. Conditions: PBPK compound file input; determined from chemical structure. How it is done: Modelling and simulation were performed using Simcyp version 14 release 1 (Simcyp Ltd, a Certara company, Sheffield, UK). The compound file for Act D was compiled using data generated in the methods described above and with additional inputs from web databases and literature sources as shown in Table 2. The Simcyp software provides a framework for assessing the PK of a drug by defining certain characteristics within a compound file. Using this compound file, pharmacokinetic data can then be simulated in individuals of a virtual population of interest, allowing for the impact of inter‐individual differences to be assessed 17, 18.
For the simulation of clinical trial data, information was taken from previous work by Hill et al., who studied 117 patients administered Act D intravenously 8. The population was split into three age categories: 1–<6 (n = 67), 6–<10 (n = 11) and 10–20 years (n = 39). These age bins were further subdivided based on the dose of Act D received (Table 1). […]
The Simcyp simulations output the mean and the 5th and 95th percentile for the concentration−time profile as well as the calculated mean, median and geometric mean of the simulated population. […] In addition, the mean fold‐prediction of AUC against observed data was determined; a two‐fold under‐ or over‐prediction was considered a reasonable prediction and within 1.5‐fold a good prediction. […]

For data set [5] the following is noted: cited from earlier work.
The conditions of data set [6]: cited from earlier work. The source holds these as a separate data set.
On the set-up of data set [7]: method as in http://www.drugbank.ca/drugs/DB00970. Conditions: PBPK compound file input; ref http://www.drugbank.ca/drugs/DB00970; cited from earlier work.
A short description of data set [8]: Blood:plasma partitioning in whole blood from a healthy donor. Format: in vitro ADME. Conditions: human. How it is done: All experiments were performed in triplicate. An aliquot of 180 μl whole blood from a healthy donor was added to 20 μL of each Act D solution (final concentrations 0.4, 2 and 10 μg ml^−1) in Eppendorf tubes, followed by gentle rotation for 1 min before transfer to an incubator (Infors HT Multitron Standard, Infors AG, Basel) at 37 °C for 1 h and 40 μl of plasma was transferred to a new Eppendorf and mixed with 40 μl of fresh blood.
For the blood samples, 40 μl of blood was transferred to a new Eppendorf and mixed with 40 μl blank plasma. All samples were then mixed with 160 μl of the extraction solution and frozen at −80 °C for 1 h. Samples were then centrifuged at 2000 g and 4 °C for 1 h and 100 μl of supernatant from each sample was transferred to HPLC vials and stored at −20 °C overnight. LC–MS analysis was performed as described above for the analysis of transporter kinetic samples. The blood‐to‐plasma ratio was calculated from the following equation (where Kb/p is the whole blood‐to‐plasma partition coefficient, Ke/p is the red blood cell‐to‐plasma partition and H is the haematocrit): (1) Blood‐to‐plasmaKb/p=Ke/p×H+1−H

Like-named read-outs stand apart in the source and are kept apart here. Marks after values point to notes of the source that are not given here. Numbered stars: 1 amine (or outer) side, 2 acyl side, 3 side chain; on linkers, the order of the positions; unused ones are H or OH. Bridge positions count the residues as written; N and C are the ends. Square brackets hold non-standard residues; d marks the D form. Peptide text beside a SMILES is read from it. I, II: the chains in the order shown. Actinocin(9to1) = Cc1c2oc3c(C)ccc(C(=O)[*:1])c3nc-2c(C(=O)[*:2])c(N)c1=O; NMeV = CN[C@H](C(=O)O)C(C)C; Sar = CNCC(=O)O

A word on the chromatographic logP: it is lipophilicity estimated from chromatographic retention. The low end stands for a more hydrophilic compound, the high end for a more lipophilic compound. Compound `C[C@@H]1C[C@H]2[C@@H]3CCC4=CC(=O)C=C[C@]4(C)[C@@]3(F)[C@@H](O)C[C@]2(C)[C@@]1(O)C(=O)CO` [Dexamethasone] registered a chromatographic logP in data set [1] (reversed-phase C18 HPLC column (Luna 5 µ C18 50 × 2.0 mm)) of 1.8.
For the compound `Cc1c2oc3c(C)ccc(C(=O)N[C@@H]4C(=O)N[C@H](C(C)C)C(=O)N5CCC[C@H]5C(=O)N(C)CC(=O)N(C)[C@@H](C(C)C)C(=O)O[C@@H]4C)c3nc-2c(C(=O)N[C@@H]2C(=O)N[C@H](C(C)C)C(=O)N3CCC[C@H]3C(=O)N(C)CC(=O)N(C)[C@@H](C(C)C)C(=O)O[C@@H]2C)c(N)c1=O` [Act D, Actinomycin D] (I: T[dV]P[Sar][NMeV] / II: T[dV]P[Sar][NMeV]; ester I:1-I:C, II:1-II:C; linker I:N-II:N via Actinocin(9to1)), the “Maximum rate of flux (J max)” value in data set [2] is reported as 1142 μM min^−1/10^6 cells. Further, in data set [2], the “Michaelis–Menten constant (K m)” value was 20 µM. In data set [3] (patients over three years of age), the “Likelihood of developing SOS” value is given as 4%. The “Chance of developing SOS” value in data set [3] (patients under three years of age) is recorded as 15%. Moreover, the Compound type entry in data set [4] was “Neutral”. For the same compound, in data set [1], the “Experimental Log P” value is reported as 4.77. The chromatographic logP in data set [1] was 4.47. Moreover, the “Mean observed AUC ± SD (AUC0-26h)” value in data set [5] (age 1–<6 years, dose 0.60 mg m^−2 IV) was 82 ± 18 ng·h/mL; in data set [5] (age 1–<6 years, dose 0.76 mg m^−2 IV) it was 63 ± 8 ng·h/mL; in data set [5] (age 1–<6 years, dose 1.01 mg m^−2 IV) it was 71 ± 33 ng·h/mL; in data set [5] (age 1–<6 years, dose 1.12 mg m^−2 IV), 82 ± 16 ng·h/mL; in data set [5] (age 1–<6 years, dose 1.48 mg m^−2 IV) it was 111 ± 16 ng·h/mL; in data set [5] (age 1–<6 years, dose 1.55 mg m^−2 IV), 128 ± 51 ng·h/mL. Besides, the “Mean observed AUC ± SD (AUC0-26h)” value in data set [5] (age 6–<10 years, dose 0.77 mg m^−2 IV) was 80 ± 28 ng·h/mL; in data set [5] (age 6–<10 years, dose 1.50 mg m^−2 IV), 130 ± 12 ng·h/mL; in data set [5] (age 10–20 years, dose 0.74 mg m^−2 IV) it was 45 ± 8 ng·h/mL; in data set [5] (age 10–20 years, dose 1.04 mg m^−2 IV) it was 50 ± 12 ng·h/mL; in data set [5] (age 10–20 years, dose 1.48 mg m^−2 IV), 120 ± 44 ng·h/mL. Further, in data set [5] (observed in patients (abstract)), the “Mean AUC0-26h observed” value is 93 ng·h/mL. Further, the “CL Renal” value in data set [6] (PBPK input, CV of 60% used, ref Tattersall et al. 5) is given as 1.8 (l h^−1) ^*. In addition, the “Administered dose eliminated in the urine and faeces” value in data set [6] (after nine days) is given as “approximately 35%”. Besides, in data set [7], the Fraction unbound is listed as 0.95. Further, the blood plasma ratio at 1 h in data set [8] (37 °C, 1 h, 95% confidence interval 0.03, read-out: Mean blood-to-plasma ratio) is 0.62; in data set [8] (whole blood spiked with 0.2 to 10 μg ml^−1, read-out: Blood-to-plasma ratios (range observed)), 0.59 to 0.65.

(Values after paper PMC4834588 (British Journal of Clinical Pharmacology, 2016).)
